Reference: article PMC3878827, “Synthesis and biological characterisation of ^18F-SIG343 and ^18F-SIG353, novel and high selectivity σ2 radiotracers, for tumour imaging properties” (EJNMMI Research, 2013)
“And” between values parts separate entries of the source, which are not always exact repeats. Equal values may be shown once.

What was measured:
σ2 receptor = molecular target: T1, σ2 receptor (Mus musculus, UniProt Q8VD00); test: In vivo blocking studies in A375 tumour-bearing mice; design: species or system Balb/C nude mice; conditions: unlabelled SIG353-treated group, 1 mg/kg, 30 min p.i.
T1 construct: from tissue; host or cells: organs of Balb/C nude mice in vivo; tumour xenograft of A375 human amelanotic melanoma cells
T1 sequence (Q8VD00 1-176): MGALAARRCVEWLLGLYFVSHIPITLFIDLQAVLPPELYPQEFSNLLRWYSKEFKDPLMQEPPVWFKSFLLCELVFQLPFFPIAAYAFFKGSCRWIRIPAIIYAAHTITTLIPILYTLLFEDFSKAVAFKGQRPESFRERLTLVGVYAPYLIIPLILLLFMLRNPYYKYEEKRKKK
Description: Female Balb/C nude mice aged 5 to 6 weeks old were obtained from the Animal Resource Centre (Perth, Australia). The animals were kept at a constant temperature of 22°C ± 2°C on a 12/12 h light/dark cycle with lights on at 09:00 am. Food and water were freely available. After a week of acclimatisation, mice were injected subcutaneously in the left flank with 1 × 10^6 A375 human amelanotic melanoma cells, in 100 μL of Ca^2+/Mg^2+-free phosphate buffered saline. The procedure was performed without anaesthetic. For in vivo studies, A375 tumour-bearing mice were used 26 days after tumour inoculation.
Blocking studies were performed to investigate the specific uptake of the tracer via σ2 receptor mechanism. […] Control mice received saline only. Five minutes after injection of the blocking drug, ^18F-SIG343 or ^18F-SIG353 (1 MBq/100 μL of saline) was injected, and groups of mice (n = 5) were sacrificed 30 min post injection of the radiotracer. Organs were processed as described for the biodistribution study. Radioactivity concentrations in the organs in the treatment groups were compared to that measured in control mice.

[1] = Metabolite studies (radio-TLC and radio-HPLC) in A375 tumour-bearing mice; assay type: in vivo; conditions: i.v., mean ± SD, n = 3
Description: The amount of intact ^18F-SIG343 and ^18F-SIG353 in the plasma, urine, tumour and brain cortex was quantified by thin layer chromatography (TLC) and radio-HPLC analysis. Mice were injected with 20 MBq of the radiotracer in 100 μL of saline. Mice were sacrificed 15, 60 and 120 min post injection of radiotracer. Whole organ samples of brain cortex and tumour samples (10 to 60 mg, minced) were added to unlabelled SIG343 or SIG353 (5 μL; 1 mg/mL), KF (5 μL; 1 mg/mL), MeCN (0.3 mL) and water (0.2 mL). Samples were exposed to an ultrasonic probe (Ultrasonic processor, Misonix Inc., Farmingdale, NY, USA) for 2 min before being centrifuged (5,000 rpm, 5 min). Plasma (50 μL) or urine (10 μL) samples were added to unlabelled SIG343 or SIG353, KF and 0.5 mL MeCN. Plasma samples were centrifuged (Heraeus Biofuge PrimoR, Thermo Fisher Scientific, Hudson, NH, USA; 5,000 rpm, 5 min), and the supernatant was removed and the radioactivity of the precipitated pellets was measured using a gamma counter to determine the extraction efficiency. If necessary, multiple extractions were performed to ensure maximum recovery of the radioactivity. An appropriate amount of the supernatant, based on the activity level (cpm), was collected (approximately 100 μL), diluted with water (up to 1.5 mL) for HPLC analysis or evaporated to dryness under vacuum for TLC analysis.
The TLC sample was reconstituted in methanol (25 to 50 μL) and mixed before being applied to the concentrating zone of the silica TLC plate. In a separate lane, the corresponding ^18F-labelled and ^19F-standard was also spotted. The TLC solvent systems of EtOAc/MeOH (70:30) were utilised for ^18F-SIG343 (rf 0.50) and ^18F-SIG353 (rf 0.55). The UV of the standard was identified using a UV lamp, while the movement and integration of the radioactive spots were visualised and measured using a phosphorimager (BAS 2500 Phosphorimager, Fujifilm, Tokyo, Japan) with Fujifilm Multigage 3.0 software. The intact radiotracer was identified as the radioactive spot containing the identical rf value to the corresponding ^19F-standard seen under the UV lamp. The integration of the active spot in relation to all the activity in the TLC lane gave the percentage of intact radiotracer.
Radio-HPLC analysis was performed following the method of Hilton et al.. A pre-column (Waters Oasis HLB, 25 μm, 20 × 3.9 mm) and a reversed phase HPLC column (Phenomenex Bondclone C18, 10 μm, 250 × 4.6 mm or Phenomenex Synergi Max-RP 80A C18, 4 μm, 250 × 4.6 mm) in series, with a switching valve between columns was utilised. The pre-column was washed with 1% acetonitrile in water for 3 min at 1.5 mL/min and then the solvent direction was switched to include the HPLC column. Both columns in series were then eluted over 10 min. The radioactivity peak corresponding to the authentic radiotracer was compared to the total activity registered in the radiochromatogram to give the fraction of unchanged radiotracer in the sample.

[2] = test system: A375 (human amelanotic melanoma) cells; test: Cell uptake inhibition studies in A375 cells with competing σ ligands; assay type: cell-based; conditions: 15 min
Description: A375 (human amelanotic melanoma) cells were purchased from American Type Culture Collection (Manassas, VA, USA) and cultured in RPMI-1640 medium (Sigma-Aldrich, St. Louis, MO, USA) supplemented with 10% foetal calf serum (Invitrogen, CA, USA) and 2 mM L-glutamine (Sigma). Cells were maintained in 175 cm^2 flasks in at 37°C in 5% CO2:95% atmosphere humidified incubator and grown to sub-confluent monolayers before being detached using trypsin for use in animal models.
Cells were prepared as described for uptake studies. Prior to the addition of the radiotracer, 400 μL of blocking drug (6.25 μmol/L in PBS) or PBS (for controls) was added to the wells. Freshly prepared radiotracer (0.37 MBq in 100 μL) was added, and the cells were incubated at 37°C for 15 min as the optimal time previously determined by the cell uptake studies. Uptake was terminated as described for uptake studies. The percentage of uptake in the treatment groups relative to the control group was determined.

Row | Compound | Increase (↑) of radiotracer uptake in pancreas versus control (σ2 receptor) | Unchanged form, Cortex ([1]; 15 min post injection) | Unchanged form, Plasma ([1]; 15 min post injection) | Unchanged form, Tumour ([1]; 15 min post injection) | Unchanged form, Urine ([1]; 15 min post injection) | Unchanged form, Cortex ([1]; 60 min post injection) | Unchanged form, Plasma ([1]; 60 min post injection) | Unchanged form, Tumour ([1]; 60 min post injection) | Unchanged form, Urine ([1]; 60 min post injection) | Unchanged form, Plasma ([1]; 120 min post injection) | Unchanged form, Tumour ([1]; 120 min post injection) | Unchanged form, Urine ([1]; 120 min post injection) | Change of cell uptake of radiotracer versus control ([2]; any of the competing σ ligands ((+)-pentazocine, haloperidol, unlabelled SIG353) 5 μM) | Change of cell uptake of radiotracer versus control ([2]; competitor (+)-pentazocine 5 μM) | Change of cell uptake of radiotracer versus control ([2]; competitor haloperidol 5 μM) | Change of cell uptake of radiotracer versus control ([2]; competitor unlabelled SIG343 5 μM)
1 | COc1cc2c(cc1OC)CN(CCCCCN1C(=O)c3ccc([18F])cc3C1=O)CC2 [^18F-SIG353] | 37% | 85% | 60 ± 3.0% | 81 ± 4.5% | 5% and 5 ± 1.3% | 87% | 27 ± 5.1% | 85 ± 2.4% | 4 ± 0.4% | 17 ± 2.9% | 65% and 65 ± 8.9% | 5 ± 1.2% | not significantly reduced |  |  | 
2 | COc1cc2c(cc1OC)CN(CCCCN1C(=O)c3ccc([18F])cc3C1=O)CC2 [^18F-SIG343] |  | 87 ± 3.2% | 49 ± 7.5% | 79 ± 4.6% | 13% and 13 ± 1.2% | 83 ± 0.8% | 23 ± 3.8% | 85 ± 3.1% | 15 ± 4.3% | 16 ± 2.8% |  | 11 ± 5.4% |  | no significant blocking effect | -72% | -69%
